US12303509B2, “Compounds for the treatment of BRAF-associated diseases and disorders” (Pfizer Inc., priority 2020, dated 2025)
pIC50: −log10 of the molar value. Where a name gives a salt, the structure may show the parent alone. Read-outs that look alike come from different tables or passages of the source.

Legend:
BCRP = BCRP (Homo sapiens (Human), UniProt Q9UNQ0); assay: BCRP MDCKII permeability assay: efflux ratio; assay type: in vitro ADME; details: dog
Experimental: BCRP transfected MDCKII cells were cultured and plated according to manufacturer's recommendations. Assay conditions included with and without the BCRP-specific inhibitor, KO143, at a concentration of 0.3 μM to ascertain the contribution of BCRP to the efflux value of the test compound.
Both positive and negative controls were used to assess functionality of P-gp or BCRP efflux in the assays. […] Final organic concentration in the assay was 1%. All dosing solutions contained 10 μM lucifer yellow to monitor LLC-PK1 or MDCKII cell monolayer integrity.
For the apical to basolateral determination (A to B), 75 μL of the test article in transport buffer were added to the apical side of the individual transwells and 250 μL of basolateral media, without compound or lucifer yellow, were added to each well. For the basolateral to apical determination (B to A), 250 μL of test article in transport buffer were added to each well and 75 μL transport buffer, without compound or lucifer yellow, were added to each transwell. All tests were performed in triplicate, and each compound was tested for both apical to basolateral and basolateral to apical transport. The plates were incubated for 2 hours on a Lab-Line Instruments Titer Orbital Shaker (VWR, West Chester, PA) at 50 rpm and 37° C. with 5% CO2. All culture plates were removed from the incubator and 50 μL of media were removed from the apical and basolateral portion of each well and added to 150 μL of 1 μM labetalol in 2:1 acetonitrile (acetonitrile): H2O, v/v.
These values were accepted when found to be below 2% for apical to basolateral and 5% basolateral to apical flux across the MDR1-transfected LLC-PK1 or BCRP-transfected MDCKII cell monolayers. The plates were sealed and the contents of each well analyzed by LC-MS/MS. The compound concentrations were determined from the ratio of the peak areas of the compound to the internal standard (labetalol) in comparison to the dosing solution.
The LC-MS/MS system was comprised of an HTS-PAL autosampler (Leap Technologies, Carrboro, NC), an HP1200 HPLC (Agilent, Palo Alto, CA), and a MDS Sciex 4000 Q Trap system (Applied Biosystems, Foster City, CA). […] The total run time, including re-equilibration, for a single injection was 1.2 minutes. Mass spectrometric detection of the analytes was accomplished using the ion spray positive mode.
An efflux ratio is calculated from the mean apical to basolateral (A-B) Papp data and basolateral to apical (B-A) Papp data using the following equation: Efflux ratio=Papp(B-A)/Papp(A-B)

P-gp (MDR1) = P-gp (MDR1) (Homo sapiens (Human), UniProt P08183); assay: MDR1 LLC-PK1 permeability assay: efflux ratio; assay type: in vitro ADME; details: pig
From the text: (§1) Final organic concentration in the assay was 1%.

A375 cells = assay: Cellular phospho-ERK inhibition assay in A375 cells; assay type: cell-based; details: Homo sapiens, A-375, A375 cells (head prints A357), 2 hours treatment, read-out: A357 cell IC50
Procedure, shortened: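 A375 (DMEM) or H1755 (RPMI) cells in 10% FBS treated 2 h at 37 °C with 9-point series, 66 pM–10 μM, 0.25% DMSO. Phospho-ERK1/2 (Thr202/Tyr204) measured by In Cell Western, normalised to GAPDH and to DMSO and 10 μM binimetinib controls; IC50 by 4-parameter fit.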

[1] = target: full-length FLAG-tagged B-Raf(V600E) (Homo sapiens (Human), UniProt P15056, V600E); assay: BRAF V600E enzyme assay (TR-FRET competitive displacement); assay type: binding
Procedure, shortened: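 Displacement of 50 nM Tracer 1710 from 5 nM full-length N-terminally FLAG-tagged B-Raf(V600E), detected by TR-FRET with 0.5 nM Eu anti-FLAG antibody, in 25 mM HEPES pH 7.4, 10 mM MgCl2, 2% DMSO; 60 min at ~22 °C. Compounds 11-point, 3-fold from 10 μM; IC50 from 4-parameter fit at 50 POC.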

H1755 cells = assay: Cellular phospho-ERK inhibition assay in H1755 cells; assay type: cell-based; details: Homo sapiens, NCI-H1755, 2 hours treatment, read-out: H1755 Cell IC50
Experimental: A375 and H1755 cells were obtained from the American Type Culture Collection (ATCC, Rockville, MD). A375 cells were maintained in DMEM growth medium containing 10% FBS. H1755 cells were maintained in RPMI growth medium containing 10% FBS.
Cells were harvested according to standard protocols, counted and plated onto flat-bottom, 96-well tissue culture plates (Costar #3599) at 2.5×10^4 cells/well for A375 cells and 1.5×10^4 cells/well for H1755 cells in 100 μL/well of growth medium containing 10% FBS. After an overnight incubation at 37° C. with 5% CO2 cells were treated for 2 hours at 37° C., 5% CO2 with compounds prepared as a 9-point, 1:3.33 fold dilution series with final compound concentrations ranging from 66 pM-10 μM and a constant DMSO concentration of 0.25%. Control wells contained either 0.25% DMSO alone (uninhibited control) or 10 μM binimetinib (complete inhibition control). The levels of phosphorylated ERK are determined using an In Cell Western protocol: following compound incubation, growth medium was discarded, and cells were fixed with 0.4% formaldehyde in PBS for 20 minutes at room temperature. Cells were permeabilized with 100% methanol for 10 minutes at room temperature. Plates were washed with PBS containing 0.05% Tween-20 and blocked for 1 hour at room temperature with LI-COR Blocking Buffer (LI-COR Biosciences; Cat #927-40000). Plates were then incubated for 2 hours at room temperature with 50 μL of a 1:400 dilution of anti-phospho-ERK1/2 (Thr202/Tyr204) (Cell Signaling; Cat #9101) and a 1:1000 dilution of anti-GAPDH (Millipore; Cat #MAB374) in LI-COR blocking buffer containing 0.05% Tween-20. Plates were washed with PBS containing […] Tween-20 then incubated at room temperature for 1 hour with 50 μL of a 1:1000 dilution of anti-rabbit AlexaFluor 680 (Life Technologies; Cat #A21109) and a 1:1000 dilution of anti-mouse IRDye 800CW (LI-COR; Cat #926-32210) in LI-COR blocking buffer containing 0.05% Tween-20. Plates were analyzed by reading on an Odyssey CLx infrared scanner. For each well, the phospho-ERK signal was normalized to the GAPDH signal and converted to POC using the following equation:
[formula] • Where: • Xmax Average Uninhibited Controls • Xmin Average Complete Inhibition Controls IC50 values were then calculated using a 4-parameter fit in XLfit software and are provided in Table A1.

[2] = MDR1 LLC-PK1 and BCRP MDCKII permeability assay: permeability coefficient (Papp); assay type: in vitro ADME
From the text: as §1

[3] = averaged IC50, TR-FRET tracer displacement, 60 min

Chain of BCRP (Q9UNQ0 whole entry): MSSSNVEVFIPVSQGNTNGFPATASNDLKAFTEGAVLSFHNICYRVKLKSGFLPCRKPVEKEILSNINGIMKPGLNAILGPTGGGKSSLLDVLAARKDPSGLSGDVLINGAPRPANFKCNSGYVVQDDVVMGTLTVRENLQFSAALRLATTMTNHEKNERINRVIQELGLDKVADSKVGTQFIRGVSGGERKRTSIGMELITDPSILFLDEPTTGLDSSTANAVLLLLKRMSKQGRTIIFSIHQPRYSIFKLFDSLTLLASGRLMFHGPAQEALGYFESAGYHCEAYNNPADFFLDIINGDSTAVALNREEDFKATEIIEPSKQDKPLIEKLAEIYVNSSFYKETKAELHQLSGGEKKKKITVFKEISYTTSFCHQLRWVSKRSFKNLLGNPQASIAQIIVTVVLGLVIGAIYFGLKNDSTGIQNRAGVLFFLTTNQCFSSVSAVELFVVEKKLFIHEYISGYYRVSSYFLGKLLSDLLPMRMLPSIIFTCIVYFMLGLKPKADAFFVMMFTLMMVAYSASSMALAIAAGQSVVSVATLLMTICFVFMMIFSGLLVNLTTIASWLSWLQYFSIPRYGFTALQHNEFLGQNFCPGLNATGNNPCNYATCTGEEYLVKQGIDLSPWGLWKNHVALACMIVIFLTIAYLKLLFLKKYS
Chain of full-length FLAG-tagged B-Raf(V600E) (P15056 whole entry V600E): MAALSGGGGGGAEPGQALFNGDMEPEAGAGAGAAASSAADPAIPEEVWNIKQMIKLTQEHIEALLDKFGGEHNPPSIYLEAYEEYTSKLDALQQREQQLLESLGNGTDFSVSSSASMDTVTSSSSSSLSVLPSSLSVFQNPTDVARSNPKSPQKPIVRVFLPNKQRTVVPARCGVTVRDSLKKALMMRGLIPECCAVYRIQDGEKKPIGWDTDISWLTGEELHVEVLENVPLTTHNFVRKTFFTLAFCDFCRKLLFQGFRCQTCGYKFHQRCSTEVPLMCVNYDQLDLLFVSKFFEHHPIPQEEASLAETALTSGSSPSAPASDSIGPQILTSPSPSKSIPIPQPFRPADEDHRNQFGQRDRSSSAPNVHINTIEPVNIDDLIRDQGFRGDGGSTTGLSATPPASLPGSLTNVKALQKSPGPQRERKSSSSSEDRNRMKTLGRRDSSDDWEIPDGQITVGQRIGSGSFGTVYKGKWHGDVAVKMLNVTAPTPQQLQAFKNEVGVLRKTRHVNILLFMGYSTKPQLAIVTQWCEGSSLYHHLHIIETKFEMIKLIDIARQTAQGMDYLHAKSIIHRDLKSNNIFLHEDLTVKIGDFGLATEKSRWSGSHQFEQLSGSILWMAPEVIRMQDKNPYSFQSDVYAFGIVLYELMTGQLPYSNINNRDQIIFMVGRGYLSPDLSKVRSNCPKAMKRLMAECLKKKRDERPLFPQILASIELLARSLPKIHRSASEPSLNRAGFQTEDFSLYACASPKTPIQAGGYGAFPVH
Chain of P-gp (MDR1) (P08183 whole entry, species assumed): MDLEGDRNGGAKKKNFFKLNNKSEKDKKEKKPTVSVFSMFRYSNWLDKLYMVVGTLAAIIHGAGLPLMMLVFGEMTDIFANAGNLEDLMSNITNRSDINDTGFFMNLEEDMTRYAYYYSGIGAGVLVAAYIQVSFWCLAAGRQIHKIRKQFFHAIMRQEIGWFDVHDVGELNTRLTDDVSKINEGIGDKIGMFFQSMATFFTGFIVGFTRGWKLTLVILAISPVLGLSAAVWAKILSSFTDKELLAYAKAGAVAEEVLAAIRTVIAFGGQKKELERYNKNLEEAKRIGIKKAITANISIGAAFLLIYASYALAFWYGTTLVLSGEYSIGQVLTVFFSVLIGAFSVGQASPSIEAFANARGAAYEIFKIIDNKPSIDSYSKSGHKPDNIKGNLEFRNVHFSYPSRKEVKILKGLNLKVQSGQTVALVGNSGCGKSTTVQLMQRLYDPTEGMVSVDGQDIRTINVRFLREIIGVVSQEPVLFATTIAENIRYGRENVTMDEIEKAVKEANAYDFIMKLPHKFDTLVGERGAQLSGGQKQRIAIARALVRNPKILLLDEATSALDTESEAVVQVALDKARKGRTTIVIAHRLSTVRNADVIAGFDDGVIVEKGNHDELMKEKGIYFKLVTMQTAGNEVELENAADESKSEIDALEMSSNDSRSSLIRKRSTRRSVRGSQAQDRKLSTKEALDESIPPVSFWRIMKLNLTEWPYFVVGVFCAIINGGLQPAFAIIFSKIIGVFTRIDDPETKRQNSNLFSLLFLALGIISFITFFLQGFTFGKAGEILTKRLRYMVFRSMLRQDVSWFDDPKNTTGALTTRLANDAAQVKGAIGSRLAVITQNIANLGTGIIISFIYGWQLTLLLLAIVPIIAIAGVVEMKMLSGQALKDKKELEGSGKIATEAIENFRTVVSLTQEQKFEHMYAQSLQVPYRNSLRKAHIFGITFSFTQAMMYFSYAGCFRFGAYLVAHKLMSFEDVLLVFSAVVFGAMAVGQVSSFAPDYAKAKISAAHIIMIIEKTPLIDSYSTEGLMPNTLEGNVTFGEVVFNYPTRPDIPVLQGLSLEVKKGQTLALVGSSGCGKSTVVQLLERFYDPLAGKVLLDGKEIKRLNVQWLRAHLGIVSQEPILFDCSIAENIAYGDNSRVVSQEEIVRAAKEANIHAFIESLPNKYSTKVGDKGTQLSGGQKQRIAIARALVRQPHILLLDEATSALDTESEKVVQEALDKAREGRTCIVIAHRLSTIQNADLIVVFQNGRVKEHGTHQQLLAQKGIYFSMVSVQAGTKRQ

Cn1cnc2ccc(Nc3c(F)ccc(NS(=O)(=O)N4CC[C@@H](F)C4)c3Cl)c(Br)c2c1=O [Example 24, (R)-N-(3-((5-bromo-3-methyl-4-oxo-3,4-dihydroquinazolin-6-yl)amino)-2-chloro-4-fluorophenyl)-3-fluoropyrrolidine-1-sulfonamide trifluoroacetate]
efflux ratio at 2 h, 1 µM (BCRP): 2.6 | efflux ratio at 2 h, 1 µM (P-gp (MDR1)): 2.5 | pIC50 (A375 cells): 8.10 | pIC50 [1, 3]: 8.70 | pIC50 (H1755 cells): 7.60 | Papp at 2 h, 1 µM [2]: 27 ×10⁻⁶ cm/s

Cc1c(Nc2c(F)ccc(NS(=O)(=O)N3CCC3)c2Cl)ccc2ncn(C)c(=O)c12 [Example 124, N-(2-chloro-3-((3,5-dimethyl-4-oxo-3,4-dihydroquinazolin-6-yl)amino)-4-fluorophenyl)azetidine-1-sulfonamide trifluoroacetate]
efflux ratio at 2 h, 1 µM (BCRP): 1.3 | efflux ratio at 2 h, 1 µM (P-gp (MDR1)): 1.1 | pIC50 (A375 cells): 7.68 | pIC50 [1, 3]: 7.77 | pIC50 (H1755 cells): 5.00 | Papp at 2 h, 1 µM [2]: 43 ×10⁻⁶ cm/s

Cn1cnc2ccc(Nc3c(F)c(F)cc(NS(=O)(=O)N4CC[C@@H](F)C4)c3Cl)c(F)c2c1=O [Example 46, (R)-N-(2-chloro-4,5-difluoro-3-((5-fluoro-3-methyl-4-oxo-3,4-dihydroquinazolin-6-yl)amino)phenyl)-3-fluoropyrrolidine-1-sulfonamide trifluoroacetate]
efflux ratio at 2 h, 1 µM (BCRP): 6.3 | efflux ratio at 2 h, 1 µM (P-gp (MDR1)): 2.8 | pIC50 (A375 cells): 8.70 | pIC50 [1, 3]: 9.00 | pIC50 (H1755 cells): 6.99 | Papp at 2 h, 1 µM [2]: 30 ×10⁻⁶ cm/s

Cn1cnc2ccc(Nc3c(F)ccc(NS(=O)(=O)N4CCCC4)c3Cl)c(Br)c2c1=O [Example 11, N-(3-((5-bromo-3-methyl-4-oxo-3,4-dihydroquinazolin-6-yl)amino)-2-chloro-4-fluorophenyl)pyrrolidine-1-sulfonamide trifluoroacetate]
efflux ratio at 2 h, 1 µM (BCRP): 0.8 | efflux ratio at 2 h, 1 µM (P-gp (MDR1)): 1.3 | pIC50 (A375 cells): 7.77 | pIC50 [1, 3]: 8.15 | pIC50 (H1755 cells): 7.12 | Papp at 2 h, 1 µM [2]: 28 ×10⁻⁶ cm/s

CO[C@@H]1CCN(S(=O)(=O)Nc2cc(F)c(F)c(Nc3ccc4ncn(C)c(=O)c4c3Cl)c2Cl)C1 [Example 32, (R)-N-(2-chloro-3-((5-chloro-3-methyl-4-oxo-3,4-dihydroquinazolin-6-yl)amino)-4,5-difluorophenyl)-3-methoxypyrrolidine-1-sulfonamide trifluoroacetate]
efflux ratio at 2 h, 1 µM (BCRP): 1 | efflux ratio at 2 h, 1 µM (P-gp (MDR1)): 1.8 | pIC50 (A375 cells): 8.30 | pIC50 [1, 3]: 8.70 | pIC50 (H1755 cells): 7.08 | Papp at 2 h, 1 µM [2]: 32 ×10⁻⁶ cm/s

CO[C@@H]1CCN(S(=O)(=O)Nc2cc(F)c(F)c(Nc3ccc4ncn(C)c(=O)c4c3C)c2Cl)C1 [Example 99, (R)-N-(2-chloro-3-((3,5-dimethyl-4-oxo-3,4-dihydroquinazolin-6-yl)amino)-4,5-difluorophenyl)-3-methoxypyrrolidine-1-sulfonamide]
efflux ratio at 2 h, 1 µM (BCRP): 1.4 | efflux ratio at 2 h, 1 µM (P-gp (MDR1)): 1.7 | pIC50 (A375 cells): 7.48 | pIC50 [1, 3]: 8.30 | pIC50 (H1755 cells): 7.00 | Papp at 2 h, 1 µM [2]: 34 ×10⁻⁶ cm/s

Cc1c(Oc2c(F)ccc(NS(=O)(=O)N3CC[C@@H](OC(F)F)C3)c2Cl)ccc2ncn(C)c(=O)c12.O=C(O)C(F)(F)F [Example 57, (R)-N-(2-chloro-3-((3,5-dimethyl-4-oxo-3,4-dihydroquinazolin-6-yl)oxy)-4-fluorophenyl)-3-(difluoromethoxy)pyrrolidine-1-sulfonamide trifluoroacetate]
efflux ratio at 2 h, 1 µM (BCRP): 0.9 | efflux ratio at 2 h, 1 µM (P-gp (MDR1)): 0.9 | pIC50 (A375 cells): 7.57 | pIC50 [1]: 8.52 | pIC50 (H1755 cells): 7.21 | Papp at 2 h, 1 µM [2]: 25 ×10⁻⁶ cm/s

Cc1c(Nc2c(F)ccc(NS(=O)(=O)N(C)C)c2Cl)ccc2ncn(C)c(=O)c12 [Example 71, N-(2-chloro-3-((3,5-dimethyl-4-oxo-3,4-dihydroquinazolin-6-yl)amino)-4-fluorophenyl)-(N,N-dimethyl)-sulfamide]
efflux ratio at 2 h, 1 µM (BCRP): 0.9 | efflux ratio at 2 h, 1 µM (P-gp (MDR1)): 1.2 | pIC50 (A375 cells): 7.16 | pIC50 [1, 3]: 6.52 | pIC50 (H1755 cells): 6.79 | Papp at 2 h, 1 µM [2]: 40 ×10⁻⁶ cm/s

Cc1c(Nc2c(F)ccc(NS(=O)(=O)N3CC(C)(F)C3)c2Cl)ccc2ncn(C)c(=O)c12 [Example 155, N-(2-chloro-3-((3,5-dimethyl-4-oxo-3,4-dihydroquinazolin-6-yl)amino)-4-fluorophenyl)-3-fluoro-3-methylazetidine-1-sulfonamide trifluoroacetate]
efflux ratio at 2 h, 1 µM (BCRP): 1.2 | efflux ratio at 2 h, 1 µM (P-gp (MDR1)): 1.4 | pIC50 (A375 cells): 7.00 | pIC50 (H1755 cells): 5.75 | Papp at 2 h, 1 µM [2]: 34 ×10⁻⁶ cm/s

Cn1cnc2ccc(Nc3c(F)ccc(NS(=O)(=O)N4CC(F)C4)c3Cl)c(F)c2c1=O [Example 127, N-(2-chloro-4-fluoro-3-((5-fluoro-3-methyl-4-oxo-3,4-dihydroquinazolin-6-yl)amino)phenyl)-3-fluoroazetidine-1-sulfonamide trifluoroacetate]
efflux ratio at 2 h, 1 µM (BCRP): 5.1 | efflux ratio at 2 h, 1 µM (P-gp (MDR1)): 3.8 | pIC50 (A375 cells): 8.70 | pIC50 (H1755 cells): 7.80 | Papp at 2 h, 1 µM [2]: 34 ×10⁻⁶ cm/s

Cn1cnc2ccc(Oc3c(F)ccc(NS(=O)(=O)N4C[C@@H](F)[C@@H](F)C4)c3Cl)c(F)c2c1=O [Example 64, cis-N-(2-chloro-4-fluoro-3-((5-fluoro-3-methyl-4-oxo-3,4-dihydroquinazolin-6-yl)oxy)phenyl)-3,4-difluoropyrrolidine-1-sulfonamide]
efflux ratio at 2 h, 1 µM (P-gp (MDR1)): 4.5 | pIC50 (A375 cells): 8.15 | pIC50 [1]: 8.70 | pIC50 (H1755 cells): 7.19 | Papp at 2 h, 1 µM [2]: 34 ×10⁻⁶ cm/s

Cn1cnc2ccc(Nc3cc(Cl)cc(NS(=O)(=O)N4CC[C@@H](F)C4)c3F)c(Cl)c2c1=O [Example 56, (R)-N-(5-chloro-3-((5-chloro-3-methyl-4-oxo-3,4-dihydroquinazolin-6-yl)amino)-2-fluorophenyl)-3-fluoropyrrolidine-1-sulfonamide trifluoroacetate]
efflux ratio at 2 h, 1 µM (BCRP): 2.8 | efflux ratio at 2 h, 1 µM (P-gp (MDR1)): 2.3 | pIC50 (A375 cells): 8.40 | pIC50 [1, 3]: 9.00 | pIC50 (H1755 cells): 7.64

COCC1CN(S(=O)(=O)Nc2ccc(F)c(Oc3ccc4ncn(C)c(=O)c4c3Cl)c2Cl)C1 [Example 118, N-(2-chloro-3-((5-chloro-3-methyl-4-oxo-3,4-dihydroquinazolin-6-yl)oxy)-4-fluorophenyl)-3-(methoxymethyl)azetidine-1-sulfonamide]
efflux ratio at 2 h, 1 µM (P-gp (MDR1)): 3.5 | pIC50 (A375 cells): 8.22 | pIC50 [1, 3]: 8.40 | pIC50 (H1755 cells): 7.39 | Papp at 2 h, 1 µM [2]: 34 ×10⁻⁶ cm/s

Cn1cnc2ccc(Oc3c(F)ccc(NS(=O)(=O)N4CC(F)C4)c3Cl)c(Cl)c2c1=O [Example 120, N-(2-chloro-3-((5-chloro-3-methyl-4-oxo-3,4-dihydroquinazolin-6-yl)oxy)-4-fluorophenyl)-3-fluoroazetidine-1-sulfonamide]
efflux ratio at 2 h, 1 µM (P-gp (MDR1)): 3.8 | pIC50 (A375 cells): 8.40 | pIC50 [1, 3]: 8.70 | pIC50 (H1755 cells): 7.16 | Papp at 2 h, 1 µM [2]: 30 ×10⁻⁶ cm/s

COCC1CN(S(=O)(=O)Nc2ccc(F)c(Nc3ccc4ncn(C)c(=O)c4c3F)c2Cl)C1 [Example 133, N-(2-chloro-4-fluoro-3-((5-fluoro-3-methyl-4-oxo-3,4-dihydroquinazolin-6-yl)amino)phenyl)-3-(methoxymethyl)azetidine-1-sulfonamide trifluoroacetate]
efflux ratio at 2 h, 1 µM (P-gp (MDR1)): 5.7 | pIC50 (A375 cells): 9.00 | pIC50 [1, 3]: 8.30 | pIC50 (H1755 cells): 7.96 | Papp at 2 h, 1 µM [2]: 33 ×10⁻⁶ cm/s
